Experimental data taken from paper PMC9714295, “DadY (PA5303) is required for fitness of Pseudomonas aeruginosa when growth is dependent on alanine catabolism” (Microbial Cell, 2022).

Key:
[1] = target: T1, DadA (Pseudomonas aeruginosa, UniProt Q9HTQ0); test: semicarbazone formation, A248; type: biochemical; conditions: 7.5 mM D-alanine; 10 mM semicarbazide, 30 uM FAD, 100 uM ubiquinone-1; pH 8.7, 25 C; no DadY
T1 construct: gene dadA1
T1 sequence (Q9HTQ0 1-432): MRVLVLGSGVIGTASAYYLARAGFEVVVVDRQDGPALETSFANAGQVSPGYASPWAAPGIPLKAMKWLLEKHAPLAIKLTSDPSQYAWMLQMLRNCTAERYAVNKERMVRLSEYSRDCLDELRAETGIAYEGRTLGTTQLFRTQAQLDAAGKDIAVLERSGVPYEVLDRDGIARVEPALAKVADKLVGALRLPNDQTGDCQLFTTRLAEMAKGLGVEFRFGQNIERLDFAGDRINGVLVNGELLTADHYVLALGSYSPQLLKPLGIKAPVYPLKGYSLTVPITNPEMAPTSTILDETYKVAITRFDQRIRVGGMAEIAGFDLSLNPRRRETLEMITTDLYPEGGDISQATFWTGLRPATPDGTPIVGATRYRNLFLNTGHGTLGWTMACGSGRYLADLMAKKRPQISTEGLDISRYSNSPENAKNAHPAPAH

[2] = target: T2, DadY (PA5303) (Pseudomonas aeruginosa, UniProt Q9HTQ1); test: semicarbazone competition assay, A248, imine generated by DadA; type: biochemical; conditions: imine made in situ from 7.5 mM D-alanine by 0.5 uM DadA; 5 uM DadY; 10 mM semicarbazide, FAD, ubiquinone-1; pH 8.7, 25 C
T2 sequence (Q9HTQ1 1-117): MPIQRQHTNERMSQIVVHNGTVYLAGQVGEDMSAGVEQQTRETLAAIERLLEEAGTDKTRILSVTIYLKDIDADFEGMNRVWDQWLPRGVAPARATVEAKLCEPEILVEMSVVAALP

| SMILES | semicarbazone formation, A248 [1] | semicarbazone competition assay, A248, imine generated by DadA [2] |
| --- | --- | --- |
| C[C@@H](N)C(=O)O [D-alanine] | When DadA used D-alanine as a substrate and semicarbazide was present, a semicarbazone compound was formed | – |
| CC(=N)C(=O)O [imino-alanine] | – | DadY could act on the imine derived from D-alanine that was generated by DadA |
